Data from US5593970A, “Heterocyclic anthracycline analogs” (priority 1994, dated 1997).
Values joined by “and” are separate entries in the source; they are usually repeats but may differ in a detail not shown here. Equal values may be shown once. Where a name gives a salt, the structure may show the parent alone. Read-outs that look alike come from different tables or passages of the source.

How the values were obtained:
Test in all cases: Microculture tetrazolium assay
Assay type in all cases: cell-based
[1] = system: SKOV3
[2] = system: SKVLB; settings: for VLB/OV3: IC50 ratio SKVLB/SKOV3; for IC50: SKVLB
[3] = system: HT29
[4] = system: LOX; settings: read-out: IC50
[5] = HT29, hydrochloride, read-out: IC50
[6] = Homo sapiens, HT-29, HT29, read-out: IC50
[7] = Homo sapiens, SK-OV-3, SKOV3, read-out: IC50
[8] = SKOV3, hydrochloride, read-out: IC50

| IC50 ([2]; read-out: IC50) | IC50 [3, 6] [µM] | IC50 [1, 7] [µM] | Compound | VLB/OV3 [2] | further results |
| --- | --- | --- | --- | --- | --- |
|  |  |  | CC(C)[C@H]1Cc2c(O)c3c(c(O)c2[C@H](O[C@H]2C[C@H](N4CCOCC4C#N)[C@H](O)[C@H](C)O2)O1)C(=O)c1ccccc1C3=O (stereo partly drawn) [BCH-2195, (1'S,1S,3R)-5,12-dihydroxy-6,11-dioxo-3-isopropyl-1-(2',3',6'-trideoxy-3'(3-cyano-4-morpholinyl)-L-lyxohexopyranose)-3,4,5,12-tetrahydroanthraceno-[2,3-c]-pyran] | 2.22 | IC50 ([1]; Homo sapiens, SK-OV-3, SKOV3): 4.55 µM; IC50 [2]: 10.1 µM; IC50 ([3]; Homo sapiens, HT-29, HT29): 3.4 µM |
| 4.64 µM |  |  | C[C@@H]1O[C@@H](O[C@@H]2O[C@@H](c3ccccc3)CC3=C2C(=O)c2cc4ccccc4c(O)c2C3=O)C[C@H](N)[C@@H]1O [BCH-2013] |  | IC50 [4]: 0.554 µM |
| 0.573 µM | 0.17 |  | CC(=O)C1Cc2c(O)c3c(c(O)c2C(O[C@H]2C[C@H](N)[C@H](O)[C@H](C)O2)O1)C(=O)c1ccccc1C3=O (mixture of isomers) [BCH-1130, (1'S,1S,3R) and (1'S,1R,3S)-Methyl-[5,12-dihydroxy-1-(2',3',6'-trideoxy-3'-amino-4'-hydroxy-L-lyxohexopyranose)-6,11-dioxo-3,4,6,11-tetrahydroanthraceno-(2,3-C)pyran-3-yl]ketone hydrochloride] |  | VLB/OV3 ([2]; hydrochloride): 21.87 and 19.04; IC50 ([2]; hydrochloride, read-out: IC50): 1.03 µM; IC50 [3, 5]: 0.127 µM |
| 7.79 µM | 5.44 | 4.71 | C[C@@H]1O[C@@H](O[C@@H]2O[C@@H](C(C)(F)F)CC3=C2C(=O)c2cc4ccccc4c(O)c2C3=O)C[C@H](NC(=O)C(F)(F)F)[C@@H]1O (mixture of isomers) [BCH-1677, (1'S,1R,3S) and (1'S,1S,3R)-5,12-dioxo-3-(1,1-difluoroethyl)-6-hydroxy-1-(2',3',6'-trideoxy-3'-trifluoroacetamido-L-lyxohexopyranose)-3,4,5,12-tetrahydroanthraceno-[2,3-c]-pyran] | 1.65 | IC50 [4]: 2.48 µM |
| 4.01 µM | 3.05 | 2.46 | C[C@@H]1O[C@@H](O[C@H]2O[C@H](C(C)(F)F)CC3=C2C(=O)c2cc4ccccc4c(O)c2C3=O)C[C@H](NC(=O)C(F)(F)F)[C@@H]1O [BCH-1676, (1'S,1R,3S)-5,12-dioxo-3-(1,1-difluoroethyl)-6-hydroxy-1-(2',3',6'-trideoxy-3'-trifluoroacetamido-L-lyxohexopyranose)-3,4,5,12-tetrahydroanthraceno-[2,3-c]-pyran] | 1.63 | IC50 [4]: 2.31 µM |
| 11.4 µM | 1.35 | 3.07 | CC(N)C1Cc2c(O)c3c(c(O)c2C(O[C@H]2C[C@H](O)[C@H](O)[C@H](C)O2)O1)C(=O)c1ccccc1C3=O (stereo partly drawn) [BCH-1683, (1'S ,1S,3R)-3(aminoethyl)-5,12-dihydroxyl-1(2,3,6-trideoxy-3,4-dihydroxy-L-lyxohexopyranose)-6,11-dioxo-3,4,6,11-tetrahydro-1H-anthra[2,3-c]pyran hydrochloride] | 3.71 | IC50 [4]: 2.29 µM |
|  | 0.147 | 0.268 | C=C(C)[C@@H]1Cc2c(O)c3c(c(O)c2[C@@H](O[C@H]2C[C@H](N)[C@H](O)[C@H](C)O2)O1)C(=O)c1ccccc1C3=O [BCH-2189, (1'S,1R,3S)-5,12-dihydroxy-6,11-dioxo-3-isopropenyl-1-(2',3',6'-trideoxy-3'-amino-L-lyxohexopyranose)-3,4,5,12-tetrahydroanthraceno-[2,3-c]-pyran hydrochloride] |  | IC50 [1, 8]: 0.342 µM; VLB/OV3 ([2]; hydrochloride): 0.39 and 0.73; IC50 [3, 5]: 0.144 µM |
| 3.18 µM | 3.71 | 1.65 | CC(C)[C@H]1Cc2c(O)c3c(c(O)c2[C@H](O[C@H]2C[C@H](N4CCOCC4)[C@H](O)[C@H](C)O2)O1)C(=O)c1ccccc1C3=O [BCH-2190, (1'S,1S,3R)-5,12-dihydroxy-6,11-dioxo-3-isopropyl-1-(2',3',6-trideoxy-3'-(4-morpholinyl)-L-lyxohexopyranose)-3,4,5,12-tetrahydroanthraceno-[2,3-c]-pyran] | 1.93 |  |
| 3.86 µM and 3.88 µM | 1.42 | 1.2 | CC[C@H]1CC2=C(C(=O)c3cc4ccccc4c(O)c3C2=O)[C@H](O[C@H]2C[C@H](NC(=O)C(F)(F)F)[C@H](O)[C@H](C)O2)O1 [BCH-1187, (1'S,1S,3S)-5,12-dioxo-3-ethyl-6-hydroxy-1-(2',3',6'-trideoxy-3'-trifluoroacetamido-4'-hydroxy-L-lyxohexopyranose)-3,4,5,12-tetrahydroanthraceno[2,3-c]pyran] | 3.22 and 2.10 | IC50 ([1]; SKOV3, read-out: IC50): 1.85 µM; IC50 ([3]; HT29, read-out: IC50): 1.98 µM |
|  |  | 0.148 | C=CC[C@H]1Cc2c(O)c3c(c(O)c2[C@H](O[C@H]2C[C@H](N)[C@H](O)[C@H](C)O2)O1)C(=O)c1ccccc1C3=O [BCH-2106, (1'S,1S,3S)-3-(5,12-dihydroxy-1-(2',3',6'-trideoxy-3'-amino-4'-hydroxy-L-lyxohexopyranose)-6,11-dioxo-3,4,5,12-tetrahydroanthraceno-[2,3-c]pyran-3-yl)propene hydrochloride] |  |  |
|  | 5.28 |  | CC(=O)[C@H]1Cc2c(O)c3c(c(O)c2[C@H](O[C@@H]2O[C@@H](C)[C@@H](O)[C@@H](O)C2I)O1)C(=O)c1ccccc1C3=O (some centres unmarked) [BCH-1675] |  | IC50 [4]: 1.18 µM |
|  |  |  | CC(C)[C@H]1Cc2c(O)c3c(c(O)c2[C@H](O[C@H]2C[C@H](N4CCOCC4)[C@H](O)[C@H](C)O2)O1)C(=O)c1ccccc1C3=O [BCH-2192, (1'S,1S,3R)-5,12-dihydroxy-6,11-dioxo-3-isopropyl-1-(2',3',6'-trideoxy-3'(4-morpholinyl)-L-lyxohexopyranose)-3,4,5,12-tetrahydroanthraceno-[2,3-c]-pyran hydrochloride] |  | IC50 [1, 8]: 1.93 µM; VLB/OV3 ([2]; hydrochloride): 1.18; IC50 ([2]; hydrochloride, read-out: IC50): 2.28 µM; IC50 [3, 5]: 4.65 µM |
|  |  |  | CC(=O)O[C@@H]1[C@H](C)O[C@@H](O[C@H]2S[C@H](C(C)=O)CC3=C2C(=O)c2cc4ccccc4c(O)c2C3=O)C[C@@H]1OC(C)=O [BCH-1671] | 0.82 and 1.00 |  |
| 11 µM | 3.53 | 1.67 | CCC1Cc2c(O)c3c(c(O)c2C(C[C@H]2C[C@H](N)[C@H](O)[C@H](C)O2)O1)C(=O)c1ccccc1C3=O (mixture of isomers) [BCH-2817, (1'S,2'R, 3'S,5'R, 1S,3R) and (1'S,2'R, 3'S,5'R, 1R, 3S)-1-(3-amino-2-hydroxy-1-methyltetrahydropyran-5-yl)methyl-3-ethyl-5,12-dihydroxy-6,11-dioxo-3,4,6,11-tetrahydroanthraceno-[2,3-c]pyran hydrochloride] | 6.59 |  |
|  |  |  | CC(=O)[C@H]1CC2=C(C(=O)c3cc4ccccc4c(O)c3C2=O)[C@H](O[C@H]2C[C@H](N)[C@H](O)[C@H](C)O2)O1 [BCH-1127] | 1.87 and 3.24 |  |
| 0.198 µM | 0.211 | 0.374 | C=C(C)[C@H]1Cc2c(O)c3c(c(O)c2[C@H](O[C@H]2C[C@H](N)[C@H](O)[C@H](C)O2)O1)C(=O)c1ccccc1C3=O [BCH-2188, (1'S,1S,3R)-5,12-dihydroxy-6,11-dioxo-3-isopropenyl-1-(2',3',6'-trideoxy-3'-amino-L-lyxohexopyranose)-3,4,5,12-tetrahydroanthraceno-[2,3-c]-pyran hydrochloride] |  | IC50 [1, 8]: 0.64 µM; VLB/OV3 ([2]; hydrochloride): 0.53 and 0.46; IC50 ([2]; hydrochloride, read-out: IC50): 0.297 µM; IC50 [3, 5]: 0.31 µM |
|  |  |  | CC(=O)C1Cc2c(O)c3c(c(O)c2C(O[C@H]2C[C@H](N4CCOCC4)[C@H](O)[C@H](C)O2)O1)C(=O)c1ccccc1C3=O (mixture of isomers) [BCH-1191, (1'S,1R,3S) and (1'S,1S,3R)-Methyl(1-(2',3',6'-trideoxy-3'-morpholino-L-lyxohexopyranose)-6,11-dioxo-5,12-dihydroxy-3,4,6,11-tetrahydroanthraceno[2,3-c]pyran-3-yl)ketone] | 3.57 | IC50 [2]: 1.05 µM |
| 5.2 µM | 5.1 | 3.5 | C[C@@H]1O[C@@H](O[C@@H]2O[C@@H](C(=O)OC(C)(C)C)CC3=C2C(=O)c2cc4ccccc4c(O)c2C3=O)C[C@H](NC(=O)C(F)(F)F)[C@@H]1O [BCH-2850] | 1.49 |  |

| Compound | IC50 ([2]; read-out: IC50) | IC50 [3, 6] [µM] | IC50 [1, 7] [µM] | VLB/OV3 [2] | further results |
| --- | --- | --- | --- | --- | --- |
| C[C@@H]1O[C@@H](O[C@H]2O[C@H](C(=O)C(C)(C)C)CC3=C2C(=O)c2cc4ccccc4c(O)c2C3=O)C[C@H](NC(=O)C(F)(F)F)[C@@H]1O (mixture of isomers) [BCH-2198, (1'S, 1S,3S) and (1'S,1R, 3R)-tert-butyl-(6-hydroxy-1-(2',3',6'-trideoxy-3'-trifluoroacetamido-4-hydroxy-L-lyxohexopyranose)-5,12-dioxo-3,4,5,12-tetrahydroanthraceno-[2,3-c]-pyran-3-yl)-ketone] | 4.15 µM | 2.41 | 4.4 | 0.94 |  |
| C=CC[C@@H]1CC2=C(C(=O)c3cc4ccccc4c(O)c3C2=O)[C@@H](O[C@H]2C[C@H](N)[C@H](O)[C@H](C)O2)O1 [BCH-2005, (1'S,1R,3R)-3-(6-hydroxy-1-(2',3',6'-trideoxy-3'-amino-4'-hydroxy-L-lyxohexopyranose)-5,12-dioxo-3,4,5,12-tetrahydroanthraceno-[2,3-c]pyran-3-yl)propene hydrochloride] | 0.364 µM | 0.245 | 0.341 | 1.07 | IC50 [4]: 0.138 µM |
| C[C@@H]1O[C@@H](O[C@@H]2O[C@@H](C(=O)C(C)(C)C)CC3=C2C(=O)c2cc4ccccc4c(O)c2C3=O)C[C@H](NC(=O)C(F)(F)F)[C@@H]1O (mixture of isomers) [BCH-2197, (1'S, 1S,3S) and (1'S,1R, 3R)-tert-butyl-(6-hydroxy-1-(2',3',6'-trideoxy-3'-trifluoroacetamido-4-hydroxy-L-lyxohexopyranose)-5,12-dioxo-3,4,5,12-tetrahydroanthraceno-[2,3-c]-pyran-3-yl)-ketone] | 3.02 µM | 0.52 | 2.77 | 1.09 |  |
